From patent US9556179B2 (BRISTOL-MYERS SQUIBB COMPANY, priority 2012, dated 2017)

What was measured:
[1] = biological target: CK1ε (Homo sapiens (Human), UniProt P49674); experiment: CK1ε kinase assay (Caliper LABCHIP electrophoretic separation of fluoresceinated peptide substrate and product); format: biochemical; conditions: 200 pM enzyme, 50 μM ATP, 22 hours at room temperature
Protocol: (§1) CK1ε and CK1δ Kinase Assays
(§2) The kinase assay was performed in V-bottom 384-well plates. […] The reaction was incubated at room temperature for 22 hours and terminated by adding 45 μl of 35 mM EDTA to each sample. The reaction mixture was analyzed on the Caliper LABCHIP®3000 (Caliper, Hopkinton, Mass.) by electrophoretic separation of the unphosphorylated substrate and phosphorylated product. […] Compounds were dissolved at 10 mM in dimethylsulfoxide (DMSO) and evaluated at eleven concentrations. IC50 values were derived by non-linear regression analysis.

[2] = biological target: CK1δ (Homo sapiens (Human), UniProt P48730); experiment: CK1δ kinase assay (Caliper LABCHIP electrophoretic separation of fluoresceinated peptide substrate and product); format: biochemical; conditions: 200 pM enzyme, 50 μM ATP, 22 hours at room temperature
Sequence of CK1δ (P48730 whole entry): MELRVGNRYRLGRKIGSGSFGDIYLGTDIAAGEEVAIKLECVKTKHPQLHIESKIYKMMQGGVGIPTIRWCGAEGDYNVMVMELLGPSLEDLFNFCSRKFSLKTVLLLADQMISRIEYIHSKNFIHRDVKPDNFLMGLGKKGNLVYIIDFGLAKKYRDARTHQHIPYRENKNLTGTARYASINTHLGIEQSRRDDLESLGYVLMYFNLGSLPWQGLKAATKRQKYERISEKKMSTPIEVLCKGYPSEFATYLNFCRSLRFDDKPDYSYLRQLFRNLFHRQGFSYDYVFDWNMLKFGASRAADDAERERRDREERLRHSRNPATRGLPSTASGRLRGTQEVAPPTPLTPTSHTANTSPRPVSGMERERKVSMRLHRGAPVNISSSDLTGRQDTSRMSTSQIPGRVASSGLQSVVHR
Protocol: as §1, §2

Sequence of CK1ε (P49674 whole entry): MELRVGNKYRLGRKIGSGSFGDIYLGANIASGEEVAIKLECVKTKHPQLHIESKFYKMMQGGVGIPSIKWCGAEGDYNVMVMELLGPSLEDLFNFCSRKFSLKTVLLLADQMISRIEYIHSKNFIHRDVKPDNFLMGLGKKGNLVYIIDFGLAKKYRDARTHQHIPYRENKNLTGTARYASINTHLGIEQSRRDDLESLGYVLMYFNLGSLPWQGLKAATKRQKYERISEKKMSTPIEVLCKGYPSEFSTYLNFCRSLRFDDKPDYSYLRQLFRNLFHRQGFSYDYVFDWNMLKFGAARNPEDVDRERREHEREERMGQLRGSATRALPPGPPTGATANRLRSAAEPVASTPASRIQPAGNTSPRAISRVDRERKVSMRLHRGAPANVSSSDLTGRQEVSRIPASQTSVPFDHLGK

IC50 [1] [pM] | IC50 [2] [pM] | Structure (SMILES)
1270 | 296 | O=C(Nc1cn2nc(-c3c(-c4ccc(F)cc4)ncn3C3CCN(C[C@@H](O)C(F)(F)F)CC3)ccc2n1)c1ccnc(F)c1 [Compound 37, (R)-2-fluoro-N-(6-(4-(4-fluorophenyl)-1-(1-(3,3,3-trifluoro-2-hydroxypropyl)piperidin-4-yl)-1H-imidazol-5-yl)imidazo[1,2-b]pyridazin-2-yl)isonicotinamide]
305 | 292 | O=C(Nc1cn2nc(-c3c(-c4ccc(F)cc4)ncn3C3CCN(C[C@H](O)C(F)(F)F)CC3)ccc2n1)c1ccnc(F)c1 [Compound 38, (S)-2-fluoro-N-(6-(4-(4-fluorophenyl)-1-(1-(3,3,3-trifluoro-2-hydroxypropyl)piperidin-4-yl)-1H-imidazol-5-yl)imidazo[1,2-b]pyridazin-2-yl)isonicotinamide]
984 | 85 | NCC(=O)N1CCC(n2cnc(-c3ccc(F)cc3)c2-c2ccc3nc(NC(=O)c4ccnc(F)c4)cn3n2)CC1 [Compound 40, N-(6-(1-(1-(2-aminoacetyl)piperidin-4-yl)-4-(4-fluorophenyl)-1H-imidazol-5-yl)imidazo[1,2-b]pyridazin-2-yl)-2-fluoroisonicotinamide]
2930 | 2790 | O=C(Nc1cn2nc(-c3c(-c4ccc(F)cc4)ncn3C3CCN(C(=O)CC(F)(F)F)CC3)ccc2n1)c1ccnc(F)c1 [Compound 42, 2-fluoro-N-(6-(4-(4-fluorophenyl)-1-(1-(3,3,3-trifluoropropanoyl)piperidin-4-yl)-1H-imidazol-5-yl)imidazo[1,2-b]pyridazin-2-yl)isonicotinamide]
1230 | 295 | O=C(Nc1cn2nc(-c3c(-c4ccc(F)cc4)ncn3C3CCN(C(=O)c4cscn4)CC3)ccc2n1)c1ccnc(F)c1 [Compound 44, 2-fluoro-N-(6-(4-(4-fluorophenyl)-1-(1-(thiazole-4-carbonyl)piperidin-4-yl)-1H-imidazol-5-yl)imidazo[1,2-b]pyridazin-2-yl)isonicotinamide]
1100 | 225 | COCC(=O)N1CCC(n2cnc(-c3ccc(F)cc3)c2-c2ccc3nc(NC(=O)c4ccnc(F)c4)cn3n2)CC1 [Compound 47, 2-fluoro-N-(6-(4-(4-fluorophenyl)-1-(1-(2-methoxyacetyl)piperidin-4-yl)-1H-imidazol-5-yl)imidazo[1,2-b]pyridazin-2-yl)isonicotinamide]
1450 | 220 | O=C(Nc1cn2nc(-c3c(-c4ccc(F)cc4)ncn3C3CCN(C(=O)c4ccno4)CC3)ccc2n1)c1ccnc(F)c1 [Compound 48, 2-fluoro-N-(6-(4-(4-fluorophenyl)-1-(1-(isoxazole-5-carbonyl)piperidin-4-yl)-1H-imidazol-5-yl)imidazo[1,2-b]pyridazin-2-yl)isonicotinamide]
7330 | 1060 | O=C(Nc1cn2nc(-c3c(-c4ccc(F)cc4)ncn3C3CCN(C(=O)C4(C(F)(F)F)CCC4)CC3)ccc2n1)c1ccnc(F)c1 [Compound 49, 2-fluoro-N-(6-(4-(4-fluorophenyl)-1-(1-(1-(trifluoromethyl)cyclobutanecarbonyl)piperidin-4-yl)-1H-imidazol-5-yl)imidazo[1,2-b]pyridazin-2-yl)isonicotinamide]
2580 | 240 | Cc1cc(C(=O)N2CCC(n3cnc(-c4ccc(F)cc4)c3-c3ccc4nc(NC(=O)c5ccnc(F)c5)cn4n3)CC2)no1 [Compound 51, 2-fluoro-N-(6-(4-(4-fluorophenyl)-1-(1-(5-methylisoxazole-3-carbonyl)piperidin-4-yl)-1H-imidazol-5-yl)imidazo[1,2-b]pyridazin-2-yl)isonicotinamide]
1440 | 347 | N#Cc1ccc(C(=O)N2CCC(n3cnc(-c4ccc(F)cc4)c3-c3ccc4nc(NC(=O)c5ccnc(F)c5)cn4n3)CC2)cc1 [Compound 52, N-(6-(1-(1-(4-cyanobenzoyl)piperidin-4-yl)-4-(4-fluorophenyl)-1H-imidazol-5-yl)imidazo[1,2-b]pyridazin-2-yl)-2-fluoroisonicotinamide]
1560 | 191 | O=C(Nc1cn2nc(-c3c(-c4ccc(F)cc4)ncn3C3CCN(C(=O)c4ccc(F)cc4)CC3)ccc2n1)c1ccnc(F)c1 [Compound 53, 2-fluoro-N-(6-(1-(1-(4-fluorobenzoyl)piperidin-4-yl)-4-(4-fluorophenyl)-1H-imidazol-5-yl)imidazo[1,2-b]pyridazin-2-yl)isonicotinamide]
3090 | 446 | CC(C)(C)C(=O)N1CCC(n2cnc(-c3ccc(F)cc3)c2-c2ccc3nc(NC(=O)c4ccnc(F)c4)cn3n2)CC1 [Compound 54, 2-fluoro-N-(6-(4-(4-fluorophenyl)-1-(1-pivaloylpiperidin-4-yl)-1H-imidazol-5-yl)imidazo[1,2-b]pyridazin-2-yl)isonicotinamide]
1050 | 178 | CC(C)(O)C(=O)N1CCC(n2cnc(-c3ccc(F)cc3)c2-c2ccc3nc(NC(=O)c4ccnc(F)c4)cn3n2)CC1 [Compound 55, 2-fluoro-N-(6-(4-(4-fluorophenyl)-1-(1-(2-hydroxy-2-methylpropanoyl)piperidin-4-yl)-1H-imidazol-5-yl)imidazo[1,2-b]pyridazin-2-yl)isonicotinamide]
297 | 130 | O=C(Nc1cn2nc(-c3c(-c4ccc(F)cc4)ncn3C3CCN(C(=O)c4ccncc4)CC3)ccc2n1)c1ccnc(F)c1 [Compound 56, 2-fluoro-N-(6-(4-(4-fluorophenyl)-1-(1 isonicotinoylpiperidin-4-yl)-1H-imidazol-5-yl)imidazo[1,2-b]pyridazin-2-yl)isonicotinamide]

The next lines start with the compound.

Structure (SMILES) | IC50 [1] [pM] | IC50 [2] [pM]
O=C(Nc1cn2nc(-c3c(-c4ccc(F)cc4)ncn3C3CCN(CCCF)CC3)ccc2n1)c1ccnc(F)c1 [Compound 33, 2-fluoro-N-(6-(4-(4-fluorophenyl)-1-(1-(3-fluoropropyl)piperidin-4-yl)-1H-imidazol-5-yl)imidazo[1,2-b]pyridazin-2-yl)isonicotinamide] | 1900 | 378
COCCN1CCC(n2cnc(-c3ccc(F)cc3)c2-c2ccc3nc(NC(=O)c4ccnc(F)c4)cn3n2)CC1 [Compound 34, 2-fluoro-N-(6-(4-(4-fluorophenyl)-1-(1-(2-methoxyethyl)piperidin-4-yl)-1H-imidazol-5-yl)imidazo[1,2-b]pyridazin-2-yl)isonicotinamide] | 12400 | 136
O=C(Nc1cn2nc(-c3c(-c4ccc(F)cc4)ncn3C3CCN(CC(F)(F)F)CC3)ccc2n1)c1ccnc(F)c1 [Compound 35, 2-fluoro-N-(6-(4-(4-fluorophenyl)-1-(1-(2,2,2-trifluoroethyl)piperidin-4-yl)-1H-imidazol-5-yl)imidazo[1,2-6]pyridazin-2-yl)isonicotinamide] | 7220 | 527
N#CCCN1CCC(n2cnc(-c3ccc(F)cc3)c2-c2ccc3nc(NC(=O)c4ccnc(F)c4)cn3n2)CC1 [Compound 36, N-(6-(1-(1-(2-cyanoethyl)piperidin-4-yl)-4-(4-fluorophenyl)-1H-imidazol-5-yl)imidazo[1,2-b]pyridazin-2-yl)-2-fluoroisonicotinamide] | 1580 | 197
O=C(Nc1cn2nc(-c3c(-c4ccc(F)cc4)ncn3C3CCN(C(=O)c4ccon4)CC3)ccc2n1)c1ccnc(F)c1 [Compound 39, 2-fluoro-N-(6-(4-(4-fluorophenyl)-1-(1-(isoxazole-3-carbonyl)piperidin-4-yl)-1H-imidazol-5-yl)imidazo[1,2-b]pyridazin-2-yl)isonicotinamide] | 2220 | 1930
O=C(Nc1cn2nc(-c3c(-c4ccc(F)cc4)ncn3C3CCN(C(=O)c4cc(C5CC5)on4)CC3)ccc2n1)c1ccnc(F)c1 [Compound 45, N-(6-(1-(1-(5-cyclopropylisoxazole-3-carbonyl)piperidin-4-yl)-4-(4-fluorophenyl)-1H-imidazol-5-yl)imidazo[1,2-b]pyridazin-2-yl)-2-fluoroisonicotinamide] | 16400 | 1980
N#CCC(=O)N1CCC(n2cnc(-c3ccc(F)cc3)c2-c2ccc3nc(NC(=O)c4ccnc(F)c4)cn3n2)CC1 [Compound 46, N-(6-(1-(1-(2-cyanoacetyl)piperidin-4-yl)-4-(4-fluorophenyl)-1H-imidazol-5-yl)imidazo[1,2-b]pyridazin-2-yl)-2-fluoroisonicotinamide] | 743 | 198
O=C(Nc1cn2nc(-c3c(-c4ccc(F)cc4)ncn3C3CCN(C(=O)c4ccsn4)CC3)ccc2n1)c1ccnc(F)c1 [Compound 50, 2-fluoro-N-(6-(4-(4-fluorophenyl)-1-(1-(isothiazole-3-carbonyl)piperidin-4-yl)-1H-imidazol-5-yl)imidazo[1,2-b]pyridazin-2-yl)isonicotinamide] | 1100 | 278
Cc1noc(C)c1C(=O)N1CCC(n2cnc(-c3ccc(F)cc3)c2-c2ccc3nc(NC(=O)c4ccnc(F)c4)cn3n2)CC1 [Compound 57, N-(6-(1-(1-(3,5-dimethylisoxazole-4-carbonyl)piperidin-4-yl)-4-(4-fluorophenyl)-1H-imidazol-5-yl)imidazo[1,2-b]pyridazin-2-yl)-2-fluoroisonicotinamide] | 3420 | 321
CS(=O)(=O)CC(=O)N1CCC(n2cnc(-c3ccc(F)cc3)c2-c2ccc3nc(NC(=O)c4ccnc(F)c4)cn3n2)CC1 [Compound 58, 2-fluoro-N-(6-(4-(4-fluorophenyl)-1-(1-(2-(methylsulfonyl)acetyl)piperidin-4-yl)-1H-imidazol-5-yl)imidazo[1,2-b]pyridazin-2-yl)isonicotinamide] | 457 | 233
